Experimental data published in US11541029B2, “High penetration compositions and their applications” (Techfields Pharma Co., Ltd., priority 2008, dated 2023).

Legend:
[1] = tested on: Human breast cancer cells (BCAP-37); assay: Human breast cancer xenograft in nude mice
In short: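 BCAP-37 tumour tissue (2-3 mm^3 per mouse) implanted subcutaneously in BALB nude mice, 12 groups of 7. Test salts given as 50 μl of 5% aqueous solution (2.5 mg compound per dose).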

[2] = tested on: fungal diseases and insects of grape vine; assay: Antiviral, anti-fungus, anti-insect activity in red grape vine; type: in vivo
Excerpt: 2 Acres of grape vine was divided into 4 groups (½ acre each). All field operations concerning land preparation and the uses of fertilizers were same for all groups. Group A was control group treated with no chemicals. Group B was normal fungicides and insecticides-treated group. Group C was N,N-diethylaminoethyl acetylsalicylate treated group. Group D was N,N-diethylaminoethyl acetylsalicylate and N,N-diethylaminoethyl jasmonate.citric acid treated group. In group A, black rot, downy mildew, powdery mildew, anthracnose, Phomopsis Blight, and other fungal diseases were found and Grape Berry Moth, Grape Root Borer, Rose Chafer, Japanese beetle, grape tomato gall, and other diseases and insects were found. Yield nothing of good (edible) grapes. In group B, 200 g of Ferbam 76% WP in 100 kg of water was applied to the group B grape vines in November 15; 160 g of sulfur 95% WP and 600 g of hydrated lime in 100 kg of water was applied to the group B grape vines in December 15; 200 g of Daconil 2787 in 100 kg of water was applied to the group B grape vines in March 10; 250 g of Captan 50% WP and 200 g of dimethomorph 50% WP in 100 kg of water was applied to the group B grape vines in March 20; 30 g of (4″R)-4″-deoxy-4″-(methylamino)avermectin B1 benzoate [proclaim ? (banleptm)] […]

[3] = tested on: Human colon cancer cells (LS174J); assay: Human colon cancer xenograft in nude mice
Excerpt: Human colon cancer cells (LS174J, 2-3 mm^3 of tumor tissue was used in each mouse) were subcutaneously xenografted into nude mice (BALB).

CCN(CC)CCOC(=O)c1ccccc1OC(C)=O.Cl [P-1, diethylaminoethyl acetylsalicylate.HCl salt]
tumor Size at day 42 ([1]; 50 μl of 5% topically every 8 hours): 140 ± 50 mm^3 | Weight of mice at day 42 ([1]; in vivo): 24 ± 3 | Yield of good (edible) grapes ([2]; 1/2 acre per group, Malathion co-applied in group C): 6300 kg | harvest dates earlier ([2]; groups C and D): 10 days | tumor Size at day 30 ([3]; about 50 μl of 5% topically every 12 hours): 480 ± 130 mm^3 | Weight of mice at day 30 ([3]; in vivo): 23 ± 3
